What was measured:
Bead-activated PBMCs = test: Payload gene order: 2A detection, rapamycin enrichment and expansion of CAR-T cells; assay type: cell-based; conditions: by day 22; 10 nM rapamycin
Experimental: The aim of this study was to determine the effect of order on the detectability and function of a lentiviral payload comprised of the following functional elements: Frb-RACR, and αCD19-CAR. The Frb-RACR element provides a selective advantage to cells when rapamycin is added to the culture. The αCD19-CAR element provides targeting of T cells to CD19+ target cells. The two elements together create CAR-T cells that enrich with rapamycin and are cytotoxic to CD19+ target cells. Two payload designs evaluated differ only in the order in which elements are expressed in the polycistronic transcript. This study tested functional aspects of the payloads in both orientations to see if differences in expression were affecting 1) payload detection by flow cytometry (2A antibody), 2) CAR-T cell rapamycin response, and 3) CAR-T cell CD19+ cell cytotoxicity.
Two payload designs evaluated: • 1. MND promoter—FRB-P2A-RACRβ-P2A-RACRγ-P2A-CAR (SEQ ID NO: 81) • 2. MND promoter—CAR-P2A-FRB-P2A-RACRβ-P2A-RACRγ (SEQ ID NO: 61)
Expansion of CAR-T cells was measured using cell counts, culture volume, and flow cytometry population frequencies to estimate total CAR-T cells. Gating requirements were different for d15 and 22; however, in each case, un-transduced cells were used as a biological negative control. […]

Nalm-6 GFP FFLUC cells = test: Nalm-6 systemic tumor model in PBMC-humanized mice; design: species or system MHC I/II KO NSG female mice; conditions: mouse, in vivo
Experimental: The aim of this study is to evaluate the efficacy of UB-VV100 and the effects of rapamycin dosing after UB-VV100 administration in a Nalm-6 systemic tumor model in PBMC-humanized mice. The UB-VV100 Viral particles comprised SEQ ID NOs: 121, 128, 131, and 132.
Lentivirus was prepared using adherent production and tiered on 293T cells by flow cytometry. Nalm-6 GFP FFLUC cells expressing luciferase and GFP were obtained from the Jensen lab, SCRI, cultured by Umoja Biopharma, and delivered in PBS for injection.
24 MHC I/II KO NSG female mice were used in the study. On study day −5 (D-5) mice were implanted with 0.5 million Nalm-6 cells via retroorbital injection.
At study day −1 mice where humanized with 10 million PBMC via IP injection. The same day all mice were imaged with an IVIS imager 15 minutes after d-Luciferin injection (15 mg/kg) to detect Nalm-6 disease burden. All mice from each tumor group were randomized according to their tumor bioluminescence (Total Flux) levels into 4 cohorts according to the Table 8 below.
At study day 0 mice from groups 3 and 4 were treated IP with 20 million viral particles of UB-VV100 in 500 ul of PBS. […]
Percentage of body weight loss was monitored during the study (FIG. 34B). […] Bone marrow, spleen, peripheral blood and tumor were collected, processed into a single cell suspension, and analyzed by flow cytometry.

unstimulated human PBMCs = test: T cell activation (CD25) in PBMCs after vector addition, flow cytometry; assay type: cell-based; conditions: 4 days after transduction; VT103 mCherry vectors 5 ul or 25 ul; Blinatumomab 1 ng/ml
Experimental: PBMCs were thawed, resuspended into 10 ml RPMI complete media, and the PBMCs were diluted to 1e6 cells/ml in complete RPMI media. IL-2 was added to a final concentration of 50U/ml. PBMCs were separated into 3× groups of 15 ml each for various stimulations: • Group #1—Blinatumomab added to a final concentration of 1 ng/ml • Group #2-15e6 αCD3/αCD28 Dynabeads added • Group #3—IL-2 only
For each group, 5 ml of stimulation solution was added to 3× wells of Non-TC treated 6 well plate and incubated at 37° C. for 48 hours. Beads were removed from applicable wells, cells were counted and pelleted. Cells were then resuspended in fresh complete RPMI media at 1e6 cells/ml with IL-2 at a final concentration of 50U/ml. 1 ml (1e6 cells) was added to the wells of a Non TC-treated 12 well plate. […]
After 4 days, cells were resuspended with 200 ul into wells in a 96 well V-bottom plate. […] Cells were resuspended in 50 ul of surface antibody cocktail (Anti-CD3-PerCP, Anti-CD19-FITC, Anti-CD56-APC, and Anti-CD25-BV421), incubated for 20 min at 4° C., washed in 200 ul FACS buffer, and resuspended in 100 ul FACS buffer and analyzed by flow cytometry. […]
(§1) Each group was incubated at 37° C. overnight. Beads were removed from applicable wells, cells were counted and pelleted. […]
as §1

Compound	expansion of αCD19-CAR-T cells over non-rapamycin treated cells (Bead-activated PBMCs) [fold]	survival (Nalm-6 GFP FFLUC cells) [study day]	CD25 expression on T cells (activation) (unstimulated human PBMCs)
CO[C@H]1C[C@@H]2CC[C@@H](C)[C@@](O)(O2)C(=O)C(=O)N2CCCC[C@H]2C(=O)O[C@H]([C@H](C)C[C@@H]2CC[C@@H](O)[C@H](OC)C2)CC(=O)[C@H](C)/C=C(\C)[C@@H](O)[C@@H](OC)C(=O)[C@H](C)C[C@H](C)/C=C/C=C/C=C/1C [rapamycin]	4.3	≤ 20	–
Blinatumomab: Bispecific T-cell engager with anti-CD3 moiety, used as PBMC stimulus	–	–	potently activated the T cells
